Molecules are shown by their SMILES. Counter-ions that a name gives are not always drawn. Like-named read-outs stand apart in the source and are kept apart here. Marks after values point to notes of the source that are not given here.

This note sets out measurements from US7297704B2, “Cycloalkyfused indole, benzothiophene, benzofuran and idene derivatives” (Wyeth, priority 2005, dated 2007).

For test [1], the target named is T1, Human 5-HT1A Receptor (Homo sapiens, UniProt P08908).
T1 construct: expressed in transfected cells; host or cells: CHO cells
T1 sequence (P08908 1-422): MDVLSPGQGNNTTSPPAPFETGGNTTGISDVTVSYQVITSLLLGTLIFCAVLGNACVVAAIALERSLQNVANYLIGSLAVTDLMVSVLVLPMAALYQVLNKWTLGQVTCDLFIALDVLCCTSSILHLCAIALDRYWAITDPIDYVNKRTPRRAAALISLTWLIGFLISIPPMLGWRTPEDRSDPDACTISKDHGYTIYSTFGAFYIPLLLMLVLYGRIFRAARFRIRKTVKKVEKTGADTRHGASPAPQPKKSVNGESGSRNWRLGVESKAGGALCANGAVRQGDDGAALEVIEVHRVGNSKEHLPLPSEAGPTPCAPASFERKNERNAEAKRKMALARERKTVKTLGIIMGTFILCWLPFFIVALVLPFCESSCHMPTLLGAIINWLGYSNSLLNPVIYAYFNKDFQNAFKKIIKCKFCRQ
Briefly: 8-OH-DPAT binding, human 5-HT1A receptor cell line. Conditions: stably transfected CHO cells, 8-OH-DPAT ligand 1.5 nM; read-out: h5-HT1A Affinity, Ki. An outline of the steps:
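Membranes from CHO cells stably expressing human 5-HT1A, incubated 30 min at room temperature in 50 mM Tris pH 7.5 with 1.5 nM radioligand (8-OH-DPAT). Non-specific binding defined with […]; filtration on PEI-soaked GF/B filters. Single-point inhibition at […], then Ki for actives.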

The target of the next test is T2, serotonin transporter (Rattus norvegicus, UniProt P31652).
T2 construct: frontal cortical membranes prepared from male S.D. rats; from tissue; host or cells: rat frontal cortex membranes (male Sprague-Dawley)
Kind of test: 3H-paroxetine binding to the serotonin transporter, rat frontal cortical membranes. Conditions: values printed without parentheses, 3H-paroxetine 0.1 nM, read-out: rb-5-HH-T, Ki. The procedure, abridged: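 Male Sprague-Dawley rat frontal cortical membranes incubated with 0.1 nM ³H-paroxetine for 60 min at 25 °C, test compound at one to eight concentrations; 10 μM fluoxetine defined specific binding. Filtration separated bound ligand, counted by scintillation. IC50 from nonlinear regression, converted to Ki by Cheng–Prusoff.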

The target in the next test is h-5-HT-T (Homo sapiens, UniProt P31645). Briefly: h-5-HT-T IC50 (Table 1, no method described).
Test [2] concerns the target T1, Human 5-HT1A Receptor. Kind of test: cAMP RIA in human 5-HT1A receptor cell line. Conditions: CHO cells; for EC50: superscript a, read-out: c-AMP, (EC50)^a; for EC50 / Emax / c-AMP, (Emax)^c: forskolin stimulated cAMP; for Emax / c-AMP, (Emax)^c: superscript c; for Emax: read-out: c-AMP, (Emax)^c; for IC50: superscript b, reversal of agonist activity, read-out: c-AMP, (IC50)^b. Type of test: cell-based. An outline of the steps:
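Stably transfected CHO cells preincubated in Krebs with 500 uM IBMX, then given forskolin (1 uM final) and test compound (0.1 and 1 uM initial screen) for 10 min at 37° C; cAMP measured by RIA as % inhibition. Antagonist mode: 6 concentrations preincubated 20 min before agonist plus forskolin; IC50 for reversal.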

Test [3] concerns the target T3, cloned human 5-HT1A receptors (Homo sapiens, UniProt P08908).
T3 construct: expressed in transfected cells
T3 sequence (P08908 1-422): T1 sequence (P08908 1-422)
Briefly: 35S-GTPγS binding assay. Type of test: biochemical. The conditions noted are these: for EC50: superscript a, potency of stimulatory effect; for IC50: superscript b, reversal of 8-OH-DPAT effect; for Emax: superscript c, maximum stimulatory effect; for Imax (maximum inhibitory effect) / GTPγS, (Imax)^d: superscript d, maximum inhibitory effect. An excerpt: The ^35S-GTPγS binding assay similar to that used by Lazareno and Birdsall (Br. J. Pharmacol., 1993, 109: 1120) was used to determine the test compound's ability to affect the binding of ^35S-GTPγS to membranes containing cloned human 5-HT1A receptors. Agonists produce an increase in binding whereas antagonists produce no increase but rather reverse the effects of the standard agonist 8-OH-DPAT. The test compound's maximum stimulatory effect is represented as the Emax, while its potency is defined by the EC50. The test compound's maximum inhibitory effect is represented as the Imax, while its potency is defined by the IC50. […] was used to determine maximum agonist or antagonist response.

T2 sequence (P31652 whole entry): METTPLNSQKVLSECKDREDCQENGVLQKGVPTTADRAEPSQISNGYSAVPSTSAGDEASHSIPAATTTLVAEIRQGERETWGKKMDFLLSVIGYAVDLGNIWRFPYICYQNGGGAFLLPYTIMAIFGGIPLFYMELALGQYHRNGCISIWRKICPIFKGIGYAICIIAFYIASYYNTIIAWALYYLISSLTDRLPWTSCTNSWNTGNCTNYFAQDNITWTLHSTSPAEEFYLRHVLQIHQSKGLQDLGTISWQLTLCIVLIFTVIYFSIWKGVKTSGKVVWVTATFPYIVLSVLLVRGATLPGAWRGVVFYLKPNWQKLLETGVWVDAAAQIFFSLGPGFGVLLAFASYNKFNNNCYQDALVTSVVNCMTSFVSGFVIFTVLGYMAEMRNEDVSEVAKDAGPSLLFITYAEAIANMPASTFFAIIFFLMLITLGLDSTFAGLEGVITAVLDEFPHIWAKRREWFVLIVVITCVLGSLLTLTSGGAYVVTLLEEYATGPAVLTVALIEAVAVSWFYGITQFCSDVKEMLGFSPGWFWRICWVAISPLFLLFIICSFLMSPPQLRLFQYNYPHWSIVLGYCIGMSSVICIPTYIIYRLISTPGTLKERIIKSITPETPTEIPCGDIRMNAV
Sequence of h-5-HT-T (P31645 whole entry): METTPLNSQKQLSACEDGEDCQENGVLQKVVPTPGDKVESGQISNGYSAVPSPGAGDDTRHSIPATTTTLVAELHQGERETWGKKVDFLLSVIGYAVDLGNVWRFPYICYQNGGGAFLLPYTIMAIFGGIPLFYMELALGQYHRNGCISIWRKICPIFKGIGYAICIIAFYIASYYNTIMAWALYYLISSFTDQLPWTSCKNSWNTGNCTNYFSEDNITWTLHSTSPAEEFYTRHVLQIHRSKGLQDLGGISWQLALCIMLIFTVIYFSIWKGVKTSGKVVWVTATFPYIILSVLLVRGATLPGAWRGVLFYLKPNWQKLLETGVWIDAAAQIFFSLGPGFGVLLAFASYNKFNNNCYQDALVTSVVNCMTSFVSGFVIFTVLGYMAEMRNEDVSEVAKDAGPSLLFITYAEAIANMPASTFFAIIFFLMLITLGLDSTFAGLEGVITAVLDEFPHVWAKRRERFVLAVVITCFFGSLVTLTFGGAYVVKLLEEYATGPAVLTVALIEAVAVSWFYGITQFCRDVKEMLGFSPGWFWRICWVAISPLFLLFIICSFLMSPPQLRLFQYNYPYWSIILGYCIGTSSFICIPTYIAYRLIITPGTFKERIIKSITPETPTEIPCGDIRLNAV

As for `Cc1ccc2c3c(ccc2n1)OC[C@H](CNCCC1CCc2[nH]c4ccc(F)cc4c2C1)O3` (mixture of isomers) [Example 40, [2-(6-Fluoro-2,3,4,9-tetrahydro-1H-carbazol-3-yl)ethyl]{[(2S)-8-methyl-2,3-dihydro[1,4]dioxino[2,3-f]quinolin-2-yl]methyl}amine dihydrochloride], the Ki (in general, the equilibrium dissociation constant of an inhibitor or competing ligand from its target) at Human 5-HT1A Receptor [1] was found to be 680 nM. Further, the Ki at serotonin transporter is 48.4 nM. In addition, at h-5-HT-T, the IC50 (usually the concentration that inhibits the measured activity by half) came to 1.24 ± 0.16 nM. Further, at Human 5-HT1A Receptor [2], the EC50 – broadly, the midpoint of the concentration-response curve – turned out to be 4.06 nM and the Emax (as a rule, the size of the effect at its maximum, as opposed to the concentration needed) is 100%. In test [3], a half-maximal effect (EC50) was put at 7.1 nM, the IC50 amounted to 75 nM, the Emax worked out at 46% and the Imax (maximum inhibitory effect) was 34%.
Take `Cc1ccc2c3c(ccc2n1)OC[C@H](CNCC1CCc2sc4ccc(F)cc4c2C1)O3` (single isomer, unassigned) [31 diastereomer 1]: the Ki at Human 5-HT1A Receptor [1] came to 1.14 nM; on serotonin transporter, 9.9 nM. For the same compound, the concentration for half-maximal inhibition (IC50) on h-5-HT-T was 337 nM; in test [3] it was 155 nM. In addition, the maximum response (Emax) at Human 5-HT1A Receptor [2] (CHO) stood at 62%. Moreover, the “GTPγS, (Imax)^d” value in test [3] stood at 95%^d.
For `Cc1ccc2c3c(ccc2n1)OC[C@H](CNCC1CCc2sc4ccc(F)cc4c2C1)O3` (single isomer, unassigned) [31 diastereomer 2], the Ki on Human 5-HT1A Receptor [1] worked out at 3.67 nM; at serotonin transporter, 51.5 nM. Moreover, the concentration for half-maximal inhibition (IC50) at h-5-HT-T amounted to 547 nM; in test [3], 290 nM. The “c-AMP, (Emax)^c” value at Human 5-HT1A Receptor [2] was 62%^c. The “GTPγS, (Imax)^d” value in test [3] is on record as 65%^d.
Regarding `Cc1ccc2c3c(ccc2n1)OC[C@H](CNCC1CCc2sc4ccccc4c2C1)O3` (single isomer, unassigned) [32 diastereomers 1], the values for the Ki on Human 5-HT1A Receptor [1] and at serotonin transporter were 8.07 nM and > 1000 nM, respectively. Further, the values for the IC50 (on Human 5-HT1A Receptor [2]; in test [3]) were 67.6 nM and 494 nM, respectively. In addition, the Imax (maximum inhibitory effect) in test [3] stood at 100%.
As to `Cc1ccc2c3c(ccc2n1)OC[C@H](CNCC1CCc2c(sc4cc(F)ccc24)C1)O3` (single isomer, unassigned) [39 diastereomer 1], the Ki on Human 5-HT1A Receptor [1] is 7.09 nM; on serotonin transporter it was 210 nM. In addition, the 50% inhibitory concentration (IC50) was determined as 2060 nM on h-5-HT-T and 645 nM in test [3]. Also, at Human 5-HT1A Receptor [2] (CHO), the Emax turned out to be 62%. The compound also registered an Imax (maximum inhibitory effect) in test [3] of 100%.
Turning to `Cc1ccc2c3c(ccc2n1)OC[C@H](CNCC1CCc2c(sc4cc(F)ccc24)C1)O3` (single isomer, unassigned) [39 diastereomer 2], the Ki is 2.16 nM at Human 5-HT1A Receptor [1] and 184 nM on serotonin transporter. Further, the values for the IC50 (at h-5-HT-T; in test [3]) were 1440 nM and 117 nM, respectively. For the same compound, at Human 5-HT1A Receptor [2], the “c-AMP, (Emax)^c” value came out at 75%^c. For the same compound, in test [3], the “GTPγS, (Imax)^d” value was 80%^d.
For `Cc1ccc2c3c(ccc2n1)OC[C@H](CNCC[C@@H]1CCc2[nH]c4ccc(F)cc4c2C1)O3` (single isomer, unassigned) [Example 41, dihydrochloride], the values for the Ki at Human 5-HT1A Receptor [1] and at serotonin transporter were 242 nM and 9.45 nM, respectively. This compound also gave an IC50 on h-5-HT-T of 0.58 ± 0.14 nM. The results for the EC50 (on Human 5-HT1A Receptor [2]; in test [3]) were 4.13 nM and 24.8 nM, respectively. For the same compound, the Emax (at Human 5-HT1A Receptor [2]; in test [3]) was 94% throughout.
Turning to `Cc1ccc2c3c(ccc2n1)OC[C@H](CN[C@@H]1CCc2c([nH]c4ccc(F)cc24)C1)O3` (single isomer, unassigned) [Example 47, dihydrochloride], the Ki at Human 5-HT1A Receptor [1] turned out to be 186 nM. The Ki at serotonin transporter amounted to 12.8 nM. This compound had an IC50 on h-5-HT-T of 102 ± 7.07 nM. In addition, at Human 5-HT1A Receptor [2], the EC50 worked out at 300 nM and the Emax came out at 59%.
Turning to `Cc1ccc2c3c(ccc2n1)OC[C@H](CN[C@H]1CCc2c([nH]c4ccc(F)cc24)C1)O3` (single isomer, unassigned) [Example 48, dihydrochloride], the inhibition constant Ki at Human 5-HT1A Receptor [1] came to 7.4 nM; on serotonin transporter it was 46.7 ± 2.07 nM. Besides, the IC50 came out at 31.9 ± 5.34 nM on h-5-HT-T and 168 nM on Human 5-HT1A Receptor [2].
Regarding `CCCN(CC1CCc2[nH]c3ccc(F)cc3c2C1)C[C@H]1COc2ccc3nc(C)ccc3c2O1` (stereo partly drawn) [Example 51, N-[(6-Fluoro-2,3,4,9-tetrahydro-1H-carbazol-3-yl)methyl]-N-{[(2S)-8-methyl-2,3-dihydro[1,4]dioxino[2,3-f]quinolin-2-yl]methyl}propan-1-amine dihydrochloride dihydrate], the Ki on Human 5-HT1A Receptor [1] was found to be 1290 nM; at serotonin transporter it was 88 nM. At h-5-HT-T, this compound gave a half-maximal inhibitory concentration (IC50) of 22.3 ± 3.32 nM. The EC50 on Human 5-HT1A Receptor [2] worked out at 171 nM. Also, the maximal response (Emax) on Human 5-HT1A Receptor [2] was 59%.
In the same order, the values of `Cc1ccc2c3c(ccc2n1)OC[C@H](CN(CC1CCc2[nH]c4ccc(F)cc4c2C1)C1CCC1)O3` (stereo partly drawn) [Example 53, N-[(6-Fluoro-2,3,4,9-tetrahydro-1H-carbazol-3-yl)methyl]-N-{[(2S)-8-methyl-2,3-dihydro[1,4]dioxino[2,3-f]quinolin-2-yl]methyl}cyclobutanamine dihydrochloride dihydrate] are 5740 nM, 498 nM, 39.1 ± 3.85 nM, 126 nM and 68%.
Take `CCC(C)N(C[C@@H]1CCc2[nH]c3ccc(F)cc3c2C1)C[C@H]1COc2ccc3nc(C)ccc3c2O1` (stereo partly drawn) [Example 58, N-{[(3R)-6-Fluoro-2,3,4,9-tetrahydro-1H-carbazol-3-yl]methyl}-N-{[(2S)-8-methyl-2,3-dihydro[1,4]dioxino[2,3-f]quinolin-2-yl]methyl}butan-2-amine monohydrochloride monohydrate]: the figures for the Ki on Human 5-HT1A Receptor [1] and on serotonin transporter were 1190 nM and 358 nM, respectively. On h-5-HT-T, this compound displayed an IC50 of 113 ± 22.5 nM. Moreover, the Emax on Human 5-HT1A Receptor [2] stood at 22%.
As for `Cc1ccc2c3c(ccc2n1)OC[C@H](CN(C[C@@H]1CCc2[nH]c4ccc(F)cc4c2C1)C1CCCC1)O3` [Example 59, N-{[(3R)-6-Fluoro-2,3,4,9-tetrahydro-1H-carbazol-3-yl]methyl}-N-{[(2S)-8-methyl-2,3-dihydro[1,4]dioxino[2,3-f]quinolin-2-yl]methyl}cyclopentanamine monohydrochloride monohydrate], the Ki on Human 5-HT1A Receptor [1] is 3120 nM. Besides, at serotonin transporter, the Ki was found to be 362 nM. Also, the IC50 at h-5-HT-T is 115 ± 16.4 nM. At Human 5-HT1A Receptor [2], the EC50 amounted to 431 nM and the Emax turned out to be 81%.
Turning to `Cc1ccc2c3c(ccc2n1)OC[C@H](CN(C)C[C@H]1CCc2c(c4cc(F)ccc4n2C)C1)O3` [Example 68, {[(3S)-6-Fluoro-9-methyl-2,3,4,9-tetrahydro-1H-carbazol-3-yl]methyl}methyl{[(2S)-8-methyl-2,3-dihydro[1,4]dioxino[2,3-f]quinolin-2-yl]methyl}amine monohydrochloride monohydrate], the values for the Ki on Human 5-HT1A Receptor [1] and on serotonin transporter were 3720 nM and 293 nM, respectively. Further, half-maximal inhibition against h-5-HT-T (IC50) was put at 15.2 ± 0.74 nM. Moreover, at Human 5-HT1A Receptor [2], the Emax was determined as 34.8%.
As for `Cc1ccc2c3c(ccc2n1)OC[C@H](CN(C)C[C@@H]1CCc2c(c4cc(F)ccc4n2C)C1)O3` [Example 69, {[(3R)-6-Fluoro-9-methyl-2,3,4,9-tetrahydro-1H-carbazol-3-yl]methyl}methyl{[(2S)-8-methyl-2,3-dihydro[1,4]dioxino[2,3-f]quinolin-2-yl]methyl}amine monohydrochloride monohydrate], the Ki on Human 5-HT1A Receptor [1] was determined as 1590 nM; on serotonin transporter, 220 nM. Further, on h-5-HT-T, the IC50 stood at 35.8 ± 0.71 nM. Moreover, on Human 5-HT1A Receptor [2], the EC50 stood at 548 nM. In addition, at Human 5-HT1A Receptor [2], the Emax is 63%.
